{"source": "paper PMC11167047", "about": "(Cell Death Discovery, 2024)", "assay_in_all_cases": "kinome screen (33PanQinase)", "assay_type_in_all_cases": "biochemical", "key": {"CHK1": {"target": "T1, CHK1 (Homo sapiens, UniProt O14757)", "T1 construct": "purchased Reaction Biology Europe GmbH (formerly ProQinase)", "T1 sequence (O14757 1-476)": "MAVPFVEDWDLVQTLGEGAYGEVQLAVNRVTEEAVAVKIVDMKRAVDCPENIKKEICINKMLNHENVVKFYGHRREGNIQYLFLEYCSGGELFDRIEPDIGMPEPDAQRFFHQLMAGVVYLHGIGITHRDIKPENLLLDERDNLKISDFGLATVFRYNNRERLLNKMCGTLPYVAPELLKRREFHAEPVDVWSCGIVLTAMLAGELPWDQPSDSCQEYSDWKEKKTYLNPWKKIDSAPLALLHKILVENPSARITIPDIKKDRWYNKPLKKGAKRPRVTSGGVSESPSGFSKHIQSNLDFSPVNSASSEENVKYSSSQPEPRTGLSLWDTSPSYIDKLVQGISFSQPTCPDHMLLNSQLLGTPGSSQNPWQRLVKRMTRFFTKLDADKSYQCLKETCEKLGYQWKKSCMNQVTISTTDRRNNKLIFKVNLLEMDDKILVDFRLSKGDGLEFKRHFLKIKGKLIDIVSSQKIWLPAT", "protocol": "(§1) The Kinome Screening was performed by Reaction Biology Europe GmbH (http://reactionbiology.com; Freiburg i. Br., Germany)."}, "PAK6": {"target": "T2, PAK6 (Homo sapiens, UniProt Q9NQU5)", "T2 construct": "purchased Reaction Biology Europe GmbH (formerly ProQinase)", "T2 sequence (Q9NQU5 whole entry)": "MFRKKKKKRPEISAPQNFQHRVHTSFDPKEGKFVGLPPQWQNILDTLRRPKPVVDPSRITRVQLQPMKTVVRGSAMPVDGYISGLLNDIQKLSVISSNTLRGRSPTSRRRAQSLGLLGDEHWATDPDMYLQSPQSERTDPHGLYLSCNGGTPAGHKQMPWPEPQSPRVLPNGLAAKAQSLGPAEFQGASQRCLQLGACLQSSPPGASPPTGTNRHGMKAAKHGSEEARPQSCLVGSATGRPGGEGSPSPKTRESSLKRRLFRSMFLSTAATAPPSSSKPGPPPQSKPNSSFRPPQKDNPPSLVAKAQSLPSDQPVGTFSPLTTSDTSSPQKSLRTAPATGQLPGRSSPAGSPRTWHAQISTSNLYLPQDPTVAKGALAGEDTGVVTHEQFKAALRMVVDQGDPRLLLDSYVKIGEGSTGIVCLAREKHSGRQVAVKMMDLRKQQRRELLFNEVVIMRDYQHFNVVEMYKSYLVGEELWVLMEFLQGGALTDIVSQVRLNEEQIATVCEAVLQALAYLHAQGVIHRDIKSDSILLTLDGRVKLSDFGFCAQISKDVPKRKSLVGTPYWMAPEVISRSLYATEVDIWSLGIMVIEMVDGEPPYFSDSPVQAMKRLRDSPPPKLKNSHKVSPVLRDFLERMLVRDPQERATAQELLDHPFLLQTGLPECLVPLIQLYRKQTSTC", "protocol": "as §1"}, "ZAP70": {"target": "T3, ZAP70 (Homo sapiens, UniProt P43403)", "T3 construct": "purchased Reaction Biology Europe GmbH (formerly ProQinase)", "T3 sequence (P43403 1-619)": "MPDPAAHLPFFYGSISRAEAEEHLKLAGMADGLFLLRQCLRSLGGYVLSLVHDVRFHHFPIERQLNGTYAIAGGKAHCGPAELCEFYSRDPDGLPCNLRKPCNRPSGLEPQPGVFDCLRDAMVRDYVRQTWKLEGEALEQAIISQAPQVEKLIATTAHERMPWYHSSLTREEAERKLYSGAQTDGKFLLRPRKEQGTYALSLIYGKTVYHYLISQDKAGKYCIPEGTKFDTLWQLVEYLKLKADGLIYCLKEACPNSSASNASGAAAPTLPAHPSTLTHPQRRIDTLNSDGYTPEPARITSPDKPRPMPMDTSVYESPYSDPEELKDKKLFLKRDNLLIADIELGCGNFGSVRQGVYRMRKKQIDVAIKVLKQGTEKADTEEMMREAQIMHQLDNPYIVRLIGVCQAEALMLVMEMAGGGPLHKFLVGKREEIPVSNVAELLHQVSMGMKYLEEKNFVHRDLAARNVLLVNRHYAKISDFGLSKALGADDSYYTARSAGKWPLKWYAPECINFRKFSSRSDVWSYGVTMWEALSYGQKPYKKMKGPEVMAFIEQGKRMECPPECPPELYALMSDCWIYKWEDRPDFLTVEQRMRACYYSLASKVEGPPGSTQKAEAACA", "protocol": "as §1"}, "MKK4": {"target": "T4, MKK4 (Homo sapiens, UniProt P45985)", "T4 construct": "purchased Reaction Biology Europe GmbH (formerly ProQinase)", "T4 sequence (P45985 1-399)": "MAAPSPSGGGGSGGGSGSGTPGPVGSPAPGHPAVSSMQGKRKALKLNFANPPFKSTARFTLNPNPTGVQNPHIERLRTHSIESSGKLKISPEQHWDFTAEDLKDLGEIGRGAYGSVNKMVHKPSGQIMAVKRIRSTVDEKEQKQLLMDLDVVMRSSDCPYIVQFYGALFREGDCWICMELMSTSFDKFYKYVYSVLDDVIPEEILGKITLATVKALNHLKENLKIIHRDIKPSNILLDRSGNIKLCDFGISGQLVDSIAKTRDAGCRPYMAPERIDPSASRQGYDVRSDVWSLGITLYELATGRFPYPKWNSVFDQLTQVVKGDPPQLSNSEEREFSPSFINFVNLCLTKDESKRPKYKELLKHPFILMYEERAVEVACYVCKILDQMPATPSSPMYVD", "protocol": "as §1"}, "AKT1": {"target": "T5, AKT1 (Homo sapiens, UniProt P31749)", "T5 construct": "purchased Reaction Biology Europe GmbH (formerly ProQinase)", "T5 sequence (P31749 whole entry)": "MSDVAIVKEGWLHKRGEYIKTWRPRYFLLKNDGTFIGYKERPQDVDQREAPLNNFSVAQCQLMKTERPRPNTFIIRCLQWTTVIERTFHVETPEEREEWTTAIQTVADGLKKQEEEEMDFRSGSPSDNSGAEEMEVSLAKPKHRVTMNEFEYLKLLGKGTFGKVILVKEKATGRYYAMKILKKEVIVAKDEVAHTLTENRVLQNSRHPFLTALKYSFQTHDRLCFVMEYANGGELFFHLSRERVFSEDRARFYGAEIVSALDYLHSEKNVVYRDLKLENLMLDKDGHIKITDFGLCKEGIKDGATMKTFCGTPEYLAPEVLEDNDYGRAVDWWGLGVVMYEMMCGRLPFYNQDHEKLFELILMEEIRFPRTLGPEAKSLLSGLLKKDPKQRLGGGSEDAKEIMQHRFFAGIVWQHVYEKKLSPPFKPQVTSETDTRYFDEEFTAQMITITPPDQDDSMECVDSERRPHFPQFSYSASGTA", "protocol": "as §1"}, "JAK1": {"target": "T6, JAK1 (Homo sapiens, UniProt P23458)", "T6 construct": "purchased Reaction Biology Europe GmbH (formerly ProQinase)", "T6 sequence (P23458 whole entry)": "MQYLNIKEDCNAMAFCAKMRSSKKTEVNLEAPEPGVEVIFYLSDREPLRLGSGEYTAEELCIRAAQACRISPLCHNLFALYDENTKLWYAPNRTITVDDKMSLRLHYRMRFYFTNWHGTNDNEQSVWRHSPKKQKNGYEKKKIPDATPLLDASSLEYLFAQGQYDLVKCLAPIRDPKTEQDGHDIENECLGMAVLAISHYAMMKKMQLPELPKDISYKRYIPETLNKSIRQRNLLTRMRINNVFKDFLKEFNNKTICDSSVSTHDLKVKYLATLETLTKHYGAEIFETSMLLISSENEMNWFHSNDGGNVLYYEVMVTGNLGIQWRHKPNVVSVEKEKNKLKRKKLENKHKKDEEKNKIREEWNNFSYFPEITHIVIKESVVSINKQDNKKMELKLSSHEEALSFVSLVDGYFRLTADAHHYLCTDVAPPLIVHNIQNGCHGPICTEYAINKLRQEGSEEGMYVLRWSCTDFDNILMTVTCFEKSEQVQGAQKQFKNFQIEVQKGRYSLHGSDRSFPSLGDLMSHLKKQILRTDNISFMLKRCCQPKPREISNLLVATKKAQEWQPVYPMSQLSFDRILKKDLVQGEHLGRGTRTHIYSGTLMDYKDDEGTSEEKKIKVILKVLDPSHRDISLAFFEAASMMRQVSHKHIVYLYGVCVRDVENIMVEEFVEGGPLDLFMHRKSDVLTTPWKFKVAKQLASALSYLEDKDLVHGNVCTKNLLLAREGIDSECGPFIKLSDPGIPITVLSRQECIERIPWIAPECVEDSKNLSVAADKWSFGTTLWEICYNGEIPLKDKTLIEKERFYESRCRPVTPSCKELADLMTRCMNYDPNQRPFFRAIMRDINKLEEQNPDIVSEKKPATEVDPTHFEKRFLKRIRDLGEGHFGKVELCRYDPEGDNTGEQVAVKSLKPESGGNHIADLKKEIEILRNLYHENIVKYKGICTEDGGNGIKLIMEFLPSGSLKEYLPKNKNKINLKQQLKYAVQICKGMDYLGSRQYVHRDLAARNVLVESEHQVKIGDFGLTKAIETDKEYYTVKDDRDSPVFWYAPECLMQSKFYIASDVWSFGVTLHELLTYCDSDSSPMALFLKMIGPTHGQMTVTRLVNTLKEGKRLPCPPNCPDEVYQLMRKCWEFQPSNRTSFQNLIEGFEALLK", "protocol": "as §1"}, "TAOK3": {"target": "T7, TAOK3 (Homo sapiens, UniProt Q9H2K8)", "T7 construct": "purchased Reaction Biology Europe GmbH (formerly ProQinase)", "T7 sequence (Q9H2K8 1-898)": "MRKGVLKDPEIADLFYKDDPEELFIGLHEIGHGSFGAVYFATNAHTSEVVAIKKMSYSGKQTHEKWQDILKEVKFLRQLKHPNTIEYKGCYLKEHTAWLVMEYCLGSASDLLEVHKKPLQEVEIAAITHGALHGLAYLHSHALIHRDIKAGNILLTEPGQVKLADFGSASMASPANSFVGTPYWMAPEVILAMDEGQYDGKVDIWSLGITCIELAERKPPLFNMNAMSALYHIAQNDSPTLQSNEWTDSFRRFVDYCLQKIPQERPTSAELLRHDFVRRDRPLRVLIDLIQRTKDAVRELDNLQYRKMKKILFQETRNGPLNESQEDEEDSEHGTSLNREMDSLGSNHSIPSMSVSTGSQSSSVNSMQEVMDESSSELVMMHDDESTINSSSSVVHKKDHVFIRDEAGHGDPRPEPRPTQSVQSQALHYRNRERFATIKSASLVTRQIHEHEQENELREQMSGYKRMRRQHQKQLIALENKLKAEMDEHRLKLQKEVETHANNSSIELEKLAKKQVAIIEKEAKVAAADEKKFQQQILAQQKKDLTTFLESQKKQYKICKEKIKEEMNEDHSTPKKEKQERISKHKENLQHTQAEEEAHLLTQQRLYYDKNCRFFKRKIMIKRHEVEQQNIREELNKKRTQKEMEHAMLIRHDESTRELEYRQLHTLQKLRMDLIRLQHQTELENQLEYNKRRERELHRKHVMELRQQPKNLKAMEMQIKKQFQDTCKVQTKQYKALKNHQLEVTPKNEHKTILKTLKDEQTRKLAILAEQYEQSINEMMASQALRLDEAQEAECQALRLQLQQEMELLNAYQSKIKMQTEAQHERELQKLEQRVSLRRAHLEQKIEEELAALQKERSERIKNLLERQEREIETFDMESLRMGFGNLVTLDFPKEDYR", "protocol": "as §1"}, "FYN": {"target": "T8, FYN (Homo sapiens, UniProt P06241)", "T8 construct": "purchased Reaction Biology Europe GmbH (formerly ProQinase)", "T8 sequence (P06241 whole entry)": "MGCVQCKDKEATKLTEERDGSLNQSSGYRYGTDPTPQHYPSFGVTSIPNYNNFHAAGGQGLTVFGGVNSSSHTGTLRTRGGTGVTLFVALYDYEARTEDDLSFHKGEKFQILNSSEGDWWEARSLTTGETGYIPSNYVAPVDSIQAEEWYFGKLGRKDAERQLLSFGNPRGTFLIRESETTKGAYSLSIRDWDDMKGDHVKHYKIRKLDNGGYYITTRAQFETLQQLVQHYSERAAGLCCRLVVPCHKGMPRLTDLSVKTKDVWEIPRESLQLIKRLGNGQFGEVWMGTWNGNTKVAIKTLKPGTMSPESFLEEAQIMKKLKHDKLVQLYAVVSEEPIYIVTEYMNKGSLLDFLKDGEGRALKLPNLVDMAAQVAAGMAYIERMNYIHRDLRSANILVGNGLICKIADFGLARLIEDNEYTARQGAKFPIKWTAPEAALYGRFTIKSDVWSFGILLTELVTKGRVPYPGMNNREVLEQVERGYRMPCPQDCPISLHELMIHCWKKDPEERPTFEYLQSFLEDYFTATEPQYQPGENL", "protocol": "as §1"}, "PKCγ": {"target": "T9, PKCγ (Homo sapiens, UniProt P05129)", "T9 construct": "purchased Reaction Biology Europe GmbH (formerly ProQinase)", "protocol": "as §1"}}}
{"smiles": "COc1ccnc2[nH]cc(-c3cc(N)nc(N)c3)c12", "note": "[meriolin 16]", "values": [{"measurement": "residual kinase activity", "setting": "CHK1; 0.03 µM", "value": "96 % of control"}, {"measurement": "residual kinase activity", "setting": "CHK1; 0.3 µM", "value": "87 % of control"}, {"measurement": "residual kinase activity", "setting": "PAK6; 0.03 µM", "value": "88 % of control"}, {"measurement": "residual kinase activity", "setting": "PAK6; 0.3 µM", "value": "76 % of control"}, {"measurement": "residual kinase activity", "setting": "ZAP70; 0.03 µM", "value": "95 % of control"}, {"measurement": "residual kinase activity", "setting": "ZAP70; 0.3 µM", "value": "83 % of control"}, {"measurement": "residual kinase activity", "setting": "MKK4; 0.03 µM", "value": "86 % of control"}, {"measurement": "residual kinase activity", "setting": "MKK4; 0.3 µM", "value": "66 % of control"}, {"measurement": "residual kinase activity", "setting": "AKT1; 0.03 µM", "value": "96 % of control"}, {"measurement": "residual kinase activity", "setting": "AKT1; 0.3 µM", "value": "70 % of control"}, {"measurement": "residual kinase activity", "setting": "JAK1; 0.03 µM", "value": "78 % of control"}, {"measurement": "residual kinase activity", "setting": "JAK1; 0.3 µM", "value": "86 % of control"}, {"measurement": "residual kinase activity", "setting": "TAOK3; 0.03 µM", "value": "111 % of control"}, {"measurement": "residual kinase activity", "setting": "TAOK3; 0.3 µM", "value": "91 % of control"}, {"measurement": "residual kinase activity", "setting": "FYN; 0.03 µM", "value": "93 % of control"}, {"measurement": "residual kinase activity", "setting": "FYN; 0.3 µM", "value": "69 % of control"}, {"measurement": "residual kinase activity", "setting": "PKCγ; 0.03 µM", "value": "99 % of control"}, {"measurement": "residual kinase activity", "setting": "PKCγ; 0.3 µM", "value": "54 % of control"}]}
{"smiles": "c1ccc(CNc2cc(-c3c[nH]c4ncccc34)ccn2)cc1", "note": "[meriolin 36]", "values": [{"measurement": "residual kinase activity", "setting": "CHK1; 0.3 µM", "value": "76 % of control"}, {"measurement": "residual kinase activity", "setting": "CHK1; 3 µM", "value": "40 % of control"}, {"measurement": "residual kinase activity", "setting": "PAK6; 0.3 µM", "value": "54 % of control"}, {"measurement": "residual kinase activity", "setting": "PAK6; 3 µM", "value": "14 % of control"}, {"measurement": "residual kinase activity", "setting": "ZAP70; 0.3 µM", "value": "110 % of control"}, {"measurement": "residual kinase activity", "setting": "ZAP70; 3 µM", "value": "85 % of control"}, {"measurement": "residual kinase activity", "setting": "MKK4; 0.3 µM", "value": "45 % of control"}, {"measurement": "residual kinase activity", "setting": "MKK4; 3 µM", "value": "9 % of control"}, {"measurement": "residual kinase activity", "setting": "AKT1; 0.3 µM", "value": "89 % of control"}, {"measurement": "residual kinase activity", "setting": "AKT1; 3 µM", "value": "41 % of control"}, {"measurement": "residual kinase activity", "setting": "JAK1; 0.3 µM", "value": "58 % of control"}, {"measurement": "residual kinase activity", "setting": "JAK1; 3 µM", "value": "25 % of control"}, {"measurement": "residual kinase activity", "setting": "TAOK3; 0.3 µM", "value": "44 % of control"}, {"measurement": "residual kinase activity", "setting": "TAOK3; 3 µM", "value": "6 % of control"}, {"measurement": "residual kinase activity", "setting": "FYN; 0.3 µM", "value": "22 % of control"}, {"measurement": "residual kinase activity", "setting": "FYN; 3 µM", "value": "3 % of control"}, {"measurement": "residual kinase activity", "setting": "PKCγ; 0.3 µM", "value": "33 % of control"}, {"measurement": "residual kinase activity", "setting": "PKCγ; 3 µM", "value": "5 % of control"}]}
